Reference: ChEMBL document CHEMBL3885881, “DrugMatrix”

Organism: Rattus norvegicus
Test: DrugMatrix - Regimen: Daily Repeat
Type: toxicity, organism-based, Sprague-Dawley
Design: regimen Daily Repeat, gender Male, age 6-8 weeks
Settings: in vivo, po, route oral GAVAGE, […]; for ABSOLUTE BASOPHIL / ABSOLUTE EOSINOPHIL / ABSOLUTE LYMPHOCYTE / ABSOLUTE MONOCYTE / ABSOLUTE SEGMENTED NEUTROPHIL / BASOPHIL / EOSINOPHIL / ERYTHROCYTE COUNT / HEMATOCRIT / HEMOGLOBIN / LEUKOCYTE COUNT / LYMPHOCYTE / MEAN CORPUSCULAR HEMOGLOBIN / MEAN CORPUSCULAR HEMOGLOBIN CONCENTRATION / MEAN CORPUSCULAR VOLUME / MONOCYTE / NEUTROPHIL / NUCLEATED RED BLOOD CELLS / PLATELET COUNT: tissue Blood; for ALANINE AMINOTRANSFERASE / ALBUMIN / ALKALINE PHOSPHATASE / ASPARTATE AMINOTRANSFERASE / BLOOD UREA NITROGEN / CARBON DIOXIDE / CHLORIDE / CHOLESTEROL / CREATINE PHOSPHOKINASE / CREATININE / GLUCOSE / LACTATE DEHYDROGENASE / LIPASE / PHOSPHORUS / POTASSIUM / SODIUM / TOTAL BILIRUBIN / TOTAL PROTEIN / URIC ACID: tissue Plasma
[1] = 0 mg/kg, 72 h, dose level Control, time 3 day
[2] = 0 mg/kg, 120 h, dose level Control, time 5 day
[3] = 30 mg/kg, 72 h, dose level Low, time 3 day
[4] = 30 mg/kg, 120 h, dose level Low, time 5 day

COc1ccc2[nH]c([S+]([O-])Cc3ncc(C)c(OC)c3C)nc2c1 (configuration not stated) [OMEPRAZOLE]
ABSOLUTE BASOPHIL [1]: 0 CELLS/uL | ABSOLUTE EOSINOPHIL [1]: 70.67 CELLS/uL | ABSOLUTE LYMPHOCYTE [1]: 12761.5 CELLS/uL | ABSOLUTE MONOCYTE [1]: 214.17 CELLS/uL | ABSOLUTE SEGMENTED NEUTROPHIL [1]: 987 CELLS/uL | BASOPHIL [1]: 0% | EOSINOPHIL [1]: 0.5% | ERYTHROCYTE COUNT [1]: 5.61 x10E6/uL | HEMATOCRIT [1]: 35.22% | HEMOGLOBIN [1]: 13.57 G/DL | LEUKOCYTE COUNT [1]: 14.03 x10E3/uL | LYMPHOCYTE [1]: 91% | MEAN CORPUSCULAR HEMOGLOBIN [1]: 24.25 pg | MEAN CORPUSCULAR HEMOGLOBIN CONCENTRATION [1]: 38.52 G/DL | MEAN CORPUSCULAR VOLUME [1]: 62.9 fL | MONOCYTE [1]: 1.5% | NEUTROPHIL [1]: 7% | NUCLEATED RED BLOOD CELLS [1]: 0 /100WBC | PLATELET COUNT [1]: 997.5 x10E3/uL | ALANINE AMINOTRANSFERASE [1]: 66.5 u/L | ALBUMIN [1]: 3.98 G/DL | ALKALINE PHOSPHATASE [1]: 350 u/L | ASPARTATE AMINOTRANSFERASE [1]: 83.83 u/L | BLOOD UREA NITROGEN [1]: 12.33 mg/dL | CARBON DIOXIDE [1]: 30.33 mmol/L | CHLORIDE [1]: 100 MEQ/L | CHOLESTEROL [1]: 75 mg/dL | CREATINE PHOSPHOKINASE [1]: 200 u/L | CREATININE [1]: 0.17 mg/dL | GLUCOSE [1]: 170 mg/dL | LACTATE DEHYDROGENASE [1]: 89.33 u/L | LIPASE [1]: 10.33 u/L | PHOSPHORUS [1]: 10.88 mg/dL | POTASSIUM [1]: 6.13 MEQ/L | SODIUM [1]: 140.53 MEQ/L | TOTAL BILIRUBIN [1]: 0.2 mg/dL | TOTAL PROTEIN [1]: 5.67 G/DL | URIC ACID [1]: 1.6 mg/dL | ABSOLUTE BASOPHIL [2]: 0 CELLS/uL | ABSOLUTE EOSINOPHIL [2]: 0 CELLS/uL | ABSOLUTE LYMPHOCYTE [2]: 9526.67 CELLS/uL | ABSOLUTE MONOCYTE [2]: 134.17 CELLS/uL | ABSOLUTE SEGMENTED NEUTROPHIL [2]: 922.5 CELLS/uL | BASOPHIL [2]: 0% | EOSINOPHIL [2]: 0% | ERYTHROCYTE COUNT [2]: 5.58 x10E6/uL | HEMATOCRIT [2]: 34.78% | HEMOGLOBIN [2]: 13.5 G/DL | LEUKOCYTE COUNT [2]: 10.58 x10E3/uL | LYMPHOCYTE [2]: 90.17% | MEAN CORPUSCULAR HEMOGLOBIN [2]: 24.27 pg | MEAN CORPUSCULAR HEMOGLOBIN CONCENTRATION [2]: 38.82 G/DL | MEAN CORPUSCULAR VOLUME [2]: 62.48 fL | MONOCYTE [2]: 1.17% | NEUTROPHIL [2]: 8.67% | NUCLEATED RED BLOOD CELLS [2]: 0.17 /100WBC | PLATELET COUNT [2]: 807.17 x10E3/uL | ALANINE AMINOTRANSFERASE [2]: 66.83 u/L | ALBUMIN [2]: 3.73 G/DL | ALKALINE PHOSPHATASE [2]: 286.17 u/L | ASPARTATE AMINOTRANSFERASE [2]: 142.33 u/L | BLOOD UREA NITROGEN [2]: 14.67 mg/dL | CARBON DIOXIDE [2]: 25.5 mmol/L | CHLORIDE [2]: 89.17 MEQ/L | CHOLESTEROL [2]: 75.17 mg/dL | CREATINE PHOSPHOKINASE [2]: 310.67 u/L | CREATININE [2]: 0.2 mg/dL | GLUCOSE [2]: 153 mg/dL | LACTATE DEHYDROGENASE [2]: 1594 u/L | LIPASE [2]: 14.83 u/L | PHOSPHORUS [2]: 11.28 mg/dL | POTASSIUM [2]: 8.46 MEQ/L | SODIUM [2]: 126.88 MEQ/L | TOTAL BILIRUBIN [2]: 0.37 mg/dL | TOTAL PROTEIN [2]: 5.53 G/DL | URIC ACID [2]: 1.52 mg/dL | ABSOLUTE BASOPHIL [3]: 0 CELLS/uL | ABSOLUTE EOSINOPHIL [3]: 80 CELLS/uL | ABSOLUTE LYMPHOCYTE [3]: 11444.67 CELLS/uL | ABSOLUTE MONOCYTE [3]: 85.33 CELLS/uL | ABSOLUTE SEGMENTED NEUTROPHIL [3]: 690 CELLS/uL | BASOPHIL [3]: 0% | EOSINOPHIL [3]: 0.67% | ERYTHROCYTE COUNT [3]: 5.41 x10E6/uL | HEMATOCRIT [3]: 34.37% | HEMOGLOBIN [3]: 13.77 G/DL | LEUKOCYTE COUNT [3]: 12.3 x10E3/uL | LYMPHOCYTE [3]: 93% | MEAN CORPUSCULAR HEMOGLOBIN [3]: 25.47 pg | MEAN CORPUSCULAR HEMOGLOBIN CONCENTRATION [3]: 40.07 G/DL | MEAN CORPUSCULAR VOLUME [3]: 63.53 fL | MONOCYTE [3]: 0.67% | NEUTROPHIL [3]: 5.67% | NUCLEATED RED BLOOD CELLS [3]: 0.67 /100WBC | PLATELET COUNT [3]: 1225.33 x10E3/uL | ALANINE AMINOTRANSFERASE [3]: 59.67 u/L | ALBUMIN [3]: 4.03 G/DL | ALKALINE PHOSPHATASE [3]: 348.67 u/L | ASPARTATE AMINOTRANSFERASE [3]: 77.33 u/L | BLOOD UREA NITROGEN [3]: 12 mg/dL | CARBON DIOXIDE [3]: 29.33 mmol/L | CHLORIDE [3]: 101 MEQ/L | CHOLESTEROL [3]: 72.33 mg/dL | CREATINE PHOSPHOKINASE [3]: 303.67 u/L | CREATININE [3]: 0.14 mg/dL | GLUCOSE [3]: 175.33 mg/dL | LACTATE DEHYDROGENASE [3]: 111 u/L | LIPASE [3]: 10.33 u/L | PHOSPHORUS [3]: 12.23 mg/dL | POTASSIUM [3]: 6.24 MEQ/L | SODIUM [3]: 143.63 MEQ/L | TOTAL BILIRUBIN [3]: 0.17 mg/dL | TOTAL PROTEIN [3]: 5.8 G/DL | URIC ACID [3]: 1.57 mg/dL | ABSOLUTE BASOPHIL [4]: 0 CELLS/uL | ABSOLUTE EOSINOPHIL [4]: 0 CELLS/uL | ABSOLUTE LYMPHOCYTE [4]: 8312.33 CELLS/uL | ABSOLUTE MONOCYTE [4]: 87.33 CELLS/uL | ABSOLUTE SEGMENTED NEUTROPHIL [4]: 233.67 CELLS/uL | BASOPHIL [4]: 0% | EOSINOPHIL [4]: 0% | ERYTHROCYTE COUNT [4]: 6.01 x10E6/uL | HEMATOCRIT [4]: 36% | HEMOGLOBIN [4]: 13.93 G/DL | LEUKOCYTE COUNT [4]: 8.63 x10E3/uL | LYMPHOCYTE [4]: 96.33% | MEAN CORPUSCULAR HEMOGLOBIN [4]: 23.2 pg | MEAN CORPUSCULAR HEMOGLOBIN CONCENTRATION [4]: 38.73 G/DL | MEAN CORPUSCULAR VOLUME [4]: 59.9 fL | MONOCYTE [4]: 1% | NEUTROPHIL [4]: 2.67% | NUCLEATED RED BLOOD CELLS [4]: 0 /100WBC | PLATELET COUNT [4]: 1213.33 x10E3/uL | ALANINE AMINOTRANSFERASE [4]: 65 u/L | ALBUMIN [4]: 4.2 G/DL | ALKALINE PHOSPHATASE [4]: 440.33 u/L | ASPARTATE AMINOTRANSFERASE [4]: 88.67 u/L | BLOOD UREA NITROGEN [4]: 14 mg/dL | CARBON DIOXIDE [4]: 30 mmol/L | CHLORIDE [4]: 98.67 MEQ/L | CHOLESTEROL [4]: 69 mg/dL | CREATINE PHOSPHOKINASE [4]: 217.67 u/L | CREATININE [4]: 0.27 mg/dL | GLUCOSE [4]: 163.33 mg/dL | LACTATE DEHYDROGENASE [4]: 152.67 u/L | LIPASE [4]: 11.67 u/L | PHOSPHORUS [4]: 11.43 mg/dL | POTASSIUM [4]: 5.8 MEQ/L | SODIUM [4]: 144.67 MEQ/L | TOTAL BILIRUBIN [4]: 0.17 mg/dL | TOTAL PROTEIN [4]: 6.1 G/DL | URIC ACID [4]: 1 mg/dL
